{
  "source": "patent US12150927B2",
  "about": "“Use of cannabidiolic acid in the treatment of autism spectrum disorder and associated disorders” (GW Research Limited, priority 2016, dated 2024)",
  "assay_type_in_all_cases": "in vivo",
  "key": {"Fmr1 KO mice": {"tested_on": "Fmr1 KO mice", "experiment": "Novel object recognition task, mouse model of fragile X syndrome", "method": "Fmr1 KO mice and wild type mice were obtained and housed four per cage in a temperature of 21° C.±1° C. and humidity of 55%±10% controlled environment. Food and water were available ad libitum. All experiments were performed during the light phase of a 12 hour light/dark cycle (08:00 to 20:00). Animals were handled for one week before the start of experiments. All behavioural tests were performed by researchers blind to the different experimental groups.\nOn day one mice were habituated for 10 minutes to the empty V-maze in which the task was to be performed. On the second day the mice went back to the maze for 10 minutes which contained two identical objects at the end of each corridor in the V-maze.\nThe following day the mice were placed again in the same maze for a further 10 minutes but one of the familiar objects was replaced for a novel object. The total time spent exploring the novel and familiar object was recorded. A discrimination index was calculated as the difference between the time spent exploring the novel and familiar object divided by the total time exploring the two objects. A high discrimination index (0.3-0.5) is considered to reflect memory retention for the familiar object.\nAdult mice […] were treated either acutely with one dose of 20 mg/kg CBDA on PND 21 for 7 consecutive days. Mice were evaluated in the novel object recognition task after the first and sixth day of CBDA administration."}, "[1]": {"tested_on": "Fmr1 KO and WT mice (PND21)", "experiment": "Susceptibility to audiogenic seizures", "method": "This trait was evaluated in PND21 mice after acute administration of the compounds or its vehicle, 30 min before starting the procedure. To measure audiogenic seizure sensitivity mice were placed individually into a novel environment, a glass cylinder (40 cm high, 16 cm diameter) and allowed to explore for 1 min. Next, a bell (100 dB) was rung for 30 see and seizure activity scored according to the following scale: no response, 0; wild running, 1; clonic seizure, 2; tonic seizure, 3; status epilepticus/respiratory arrest/death, 4.\nOn postnatal day 21 (PND21) WT and Fmr1 KO mice were injected with CBDA (20 mg/kg) or vehicle, 30 min before exposure to a bell ring (100 dB). Mice exposed to this noise for 30 see ceased from their normal exploratory behaviour and reacted with gradually to wild-running, clonic seizure, tonic seizure or death. The maximum response was annotated for each mouse as detailed in Table 2 below. A score was calculated according to the severity of the symptoms as explained in the Methods section."}, "MeCP2 KO and WT mice": {"tested_on": "MeCP2 KO and WT mice", "experiment": "Survival, mouse model of Rett syndrome", "method": "CBDA was administered daily at the dose of 2 or 20 mg/kg i.p. starting from PND 28 and the following signs were scored every other day: hindlimb clasping (indication of motor imbalance), tremor, gait (measure of coordination), breathing, mobility and general condition.\nThe CBDA was dissolved in ethanol, cremophor and saline (1:1:18). Starting from PND 28, mice received a daily intraperitoneal injection of CBDA (or vehicle) at the dose of 2 or 20 mg/kg. Animals were then scored every other day to evaluate the effect of CBDA treatment on motor symptoms (hindlimb clasping, gait, mobility) as well as neurological signs and general conditions (breathing abnormalities, tremors and general condition) present in MeCP2 knockout (KO) mice."}, "Ube3am-/p+ (AS) mice": {"tested_on": "Ube3am-/p+ (AS) mice", "experiment": "Novel object recognition, mouse model of Angelman syndrome", "settings": "CBDA 20 mg/kg i.p., age 7-8 weeks, vs AS vehicle", "method": "Heterozygous mice with maternal deficiency of Ube3A (Ube3am−/p+) and wild type (Ube3am+/p+) were purchased from The Jackson Laboratory (Jackson code: B6.129S7-Ube3a tm1Alb/J) and maintained in a C57BL/6 background.\nDrugs were dissolved in 1:1:18 ethanol:cremophor:0.9% saline, for intraperitoneal (i.p.) administration. Drug treatment was performed daily for 35 days. CBDA was administered at 20 mg/kg.\nNovel Object Recognition: The novel object recognition assesses recognition memory in mice. The experiment started with the habituation period, during which mice were allowed to freely explore for 1 hour the apparatus which consists of a rectangular open box (40×30×30 cm width×length×height) made of grey polyvinyl chloride (PVC) illuminated by a dim light. The day after each mouse was allowed to explore two identical objects positioned in the back left and right corners for 5 min (acquisition). A video camera recorded the time spent on exploration of each object. […] The behaviour of mice was analyzed by an observer blind to the treatment. Data are expressed as percentage of recognition index (RI %), which was calculated as the percentage of the time spent exploring the novel object/time spent exploring the novel object+time spent exploring the familiar object×100."}, "[2]": {"settings": "FXS (Fmr1 KO) mice PND21, n = 5, CBDA 20 mg/kg acute (30 min)"}, "[3]": {"settings": "WT mice PND21, n = 6, CBDA 20 mg/kg acute (30 min)"}},
  "note": "Where “and” joins values, the source holds several entries; their conditions need not be identical. Equal entries are not always repeated.",
  "data": [
    {"compound": "C=C(C)[C@@H]1CCC(C)=C[C@H]1c1c(O)cc(CCCCC)c(C(=O)O)c1O", "note": "[CBDA, Cannabidiolic acid]", "values": [
      {"measurement": "discrimination index level", "setting": "Fmr1 KO mice; Fmr1 KO mice treated with CBDA over 7 days", "result": 0.32},
      {"measurement": "discrimination index", "setting": "Fmr1 KO mice; acute treatment, CBDA 20 mg/kg, Fmr1 KO mice vs KO vehicle, FIG. 3", "result": "increase the discrimination index slightly over that of the knockout mice administered vehicle, however this was not significant"},
      {"measurement": "discrimination index (effect vs vehicle)", "setting": "Fmr1 KO mice; chronic treatment, once daily for 7 days, CBDA 20 mg/kg, Fmr1 KO mice, FIG. 4", "result": "statistically significant increase in the discrimination index"},
      {"measurement": "number of mice with maximum response: Clonic seizure", "setting": "[1]; [2]", "result": 0},
      {"measurement": "number of mice with maximum response: Death", "setting": "[1]; [2]", "result": 0},
      {"measurement": "number of mice with maximum response: No response", "setting": "[1]; [2]", "result": 2},
      {"measurement": "number of mice with maximum response: Tonic seizure", "setting": "[1]; [2]", "result": 1},
      {"measurement": "number of mice with maximum response: Wild running", "setting": "[1]; [2]", "result": 2},
      {"measurement": "seizure severity", "setting": "[1]; FXS mice, CBDA 20 mg/kg, 30 min before 100 dB bell, vs vehicle", "result": "either no seizures or seizures of lower severity"},
      {"measurement": "number of mice with maximum response: Clonic seizure", "setting": "[1]; [3]", "result": 0},
      {"measurement": "number of mice with maximum response: Death", "setting": "[1]; [3]", "result": 0},
      {"measurement": "number of mice with maximum response: No response", "setting": "[1]; [3]", "result": 6},
      {"measurement": "number of mice with maximum response: Tonic seizure", "setting": "[1]; [3]", "result": 0},
      {"measurement": "number of mice with maximum response: Wild running", "setting": "[1]; [3]", "result": 0},
      {"measurement": "survival rate", "setting": "MeCP2 KO and WT mice; MeCP2 KO mice, chronic CBDA 20 mg/kg i.p., PND 67 (vehicle KO 57.14%), FIG. 6", "result": "85.14% and 85%"},
      {"measurement": "lethality", "setting": "MeCP2 KO and WT mice; WT mice treated with CBDA (2 and 20 mg/kg i.p. daily)", "result": "No lethality"},
      {"measurement": "discrimination index", "setting": "Ube3am-/p+ (AS) mice", "result": "increased the discrimination index"}
    ]}
  ]
}
